# Reference: patent US10738028B2, “Spiro three-membered ring, spiro five-membered ring peptide deformylase inhibitor and use thereof in antibacteria and anti-tumor” (priority 2016, dated 2020)
# Like-named read-outs stand apart in the source and are kept apart here.
# Columns and labels:
# Type in all cases: cell-based
# [1] = tested on: Enterococcus faecalis (EFA); assay: MIC, two-fold agar dilution (CLSI), clinical isolates
# How it was run: (§1)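 Samples are serially diluted two-fold in agar following CLSI guidance. Plates are then inoculated with the tested strains. The lowest inhibiting concentration is recorded as MIC.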
# [2] = tested on: Enterococcus faecium (EFM); assay: as above
# How it was run: as §1
# [3] = tested on: Escherichia coli (including ESBLs, non-ESBLs); assay: as above
# How it was run: as §1
# [4] = tested on: Moraxella catarrhalis (BCA); assay: as above
# How it was run: as §1
# [5] = tested on: Streptococcus pneoumoniae (SPN); assay: as above
# How it was run: as §1
# [6] = tested on: methicillin-resistant Staphylococcus aureus (MRSA); assay: as above
# How it was run: as §1
# [7] = tested on: methicillin-resistant Staphylococcus epidermidis (MRSE); assay: as above
# How it was run: as §1
# [8] = tested on: methicillin-sensitive Staphylococcus aureus (MSSA); assay: as above
# How it was run: as §1
# [9] = tested on: methicillin-sensitive Staphylococcus epidermidis (MSSE); assay: as above
# How it was run: as §1
# [10] = tested on: HCT-116 colorectal cancer cell line; assay: CCK-8 proliferation inhibition; conditions: Homo sapiens, HCT-116, 72 h, concentration of 30 μM, 72 hours, CCK-8
# How it was run: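 Viability read-out: 1:10 diluted CCK-8 after 72 h compound exposure at 37 °C, 5% CO2. Cells (2000/well, McCoy's 5A plus 10% newborn bovine serum) pre-cultured overnight; vehicle control 1‰ DMSO.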
# [11] = tested on: A549 lung cancer cell line; assay: CCK-8 proliferation inhibition; conditions: Homo sapiens, A549, 72 h, concentration of 30 μM
# How it was run: (§2)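 Plating at 2000 cells/well, then incubation overnight at 37° C. Next, a range of compound concentrations for 72 hours (control 1‰ DMSO). Finally, medium decanted and CCK-8 diluted 1:10 added.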
# [12] = tested on: BEL-7402 liver cancer cell line; assay: CCK-8 proliferation inhibition; conditions: concentration of 30 μM
# How it was run: as §2
# [13] = tested on: MGC-803 gastric cancer cell line; assay: CCK-8 proliferation inhibition; conditions: Homo sapiens, MGC-803, 72 h, concentration of 30 μM
# How it was run: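 Growth inhibition measured by CCK-8 read-out after 72 h continuous compound treatment, 1‰ DMSO vehicle as control. Cells plated 2000/well the night before at 37 °C, 5% CO2; medium was 1640 for Jurkat and MGC-803, F12 for PC3, DMEM high glucose for MCF-7, each with 10% newborn bovine serum.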
smiles,measurement,setting,value
COC(=O)c1sccc1NC(=O)[C@@H]1CC2(CC2)CN1C(=O)[C@H](CC1CCCC1)CN(O)C=O [Example 34],MIC (anti-bacterial activity),[1]; strain EFA 15-1,4 µg/mL
same,MIC (anti-bacterial activity),[1]; strain EFA 15-2,4 µg/mL
same,MIC (anti-bacterial activity),[1]; strain EFA 15-3,2 µg/mL
same,MIC (anti-bacterial activity),[1]; strain EFA 15-4,4 µg/mL
same,MIC (anti-bacterial activity),[1]; strain EFA 15-5,4 µg/mL
same,MIC (anti-bacterial activity),[1]; strain EFA 15-6,4 µg/mL
same,MIC (anti-bacterial activity),[1]; strain EFA 15-9,4 µg/mL
same,MIC (anti-bacterial activity),[2]; strain EFM 15-1,2 µg/mL
same,MIC (anti-bacterial activity),[2]; strain EFM 15-2,2 µg/mL
same,MIC (anti-bacterial activity),[2]; strain EFM 15-3,0.25 µg/mL
same,MIC (anti-bacterial activity),[2]; strain EFM 15-4,4 µg/mL
same,MIC (anti-bacterial activity),[2]; strain EFM 15-5,4 µg/mL
same,MIC (anti-bacterial activity),[2]; strain EFM 15-6,4 µg/mL
same,MIC (anti-bacterial activity),[3]; strain ECO+ 15-1,128 µg/mL
same,MIC (anti-bacterial activity),[3]; strain ECO+ 15-2,128 µg/mL
same,MIC (anti-bacterial activity),[3]; strain ECO+ 15-3,128 µg/mL
same,MIC (anti-bacterial activity),[3]; strain ECO+ 15-4,128 µg/mL
same,MIC (anti-bacterial activity),[3]; strain ECO− 15-1,128 µg/mL
same,MIC (anti-bacterial activity),[3]; strain ECO− 15-2,128 µg/mL
same,MIC (anti-bacterial activity),[3]; strain ECO− 15-3,128 µg/mL
same,MIC (anti-bacterial activity),[3]; strain ECO− 15-4,128 µg/mL
same,"Anti-bacterial activity (MIC), strain BCA 14-10",[4]; clinical isolate BCA 14-10,2 µg/mL
same,MIC (anti-bacterial activity),[4]; strain BCA 14-1,4 µg/mL
same,MIC (anti-bacterial activity),[4]; strain BCA 14-4,4 µg/mL
same,MIC (anti-bacterial activity),[4]; strain BCA 14-5,1 µg/mL
same,MIC (anti-bacterial activity),[4]; strain BCA 14-6,4 µg/mL
same,MIC (anti-bacterial activity),[4]; strain BCA 14-7,2 µg/mL
same,MIC (anti-bacterial activity),[4]; strain BCA 14-8,2 µg/mL
same,MIC (anti-bacterial activity),[5]; strain SPN 16-2,0.125 µg/mL
same,MIC (anti-bacterial activity),[5]; strain SPN 16-4,4 µg/mL
same,MIC (anti-bacterial activity),[6]; strain MRSA 15-1,1 µg/mL
same,MIC (anti-bacterial activity),[6]; strain MRSA 15-2,1 µg/mL
same,MIC (anti-bacterial activity),[6]; strain MRSA 15-3,1 µg/mL
same,MIC (anti-bacterial activity),[6]; strain MRSA 15-4,0.5 µg/mL
same,MIC (anti-bacterial activity),[7]; strain MRSE 15-1,0.25 µg/mL
same,MIC (anti-bacterial activity),[7]; strain MRSE 15-2,4 µg/mL
same,MIC (anti-bacterial activity),[7]; strain MRSE 15-3,4 µg/mL
same,MIC (anti-bacterial activity),[7]; strain MRSE 15-7,4 µg/mL
same,MIC (anti-bacterial activity),[8]; strain MSSA 15-3,1 µg/mL
same,MIC (anti-bacterial activity),[8]; strain MSSA 15-4,1 µg/mL
same,MIC (anti-bacterial activity),[8]; strain MSSA 15-5,1 µg/mL
same,MIC (anti-bacterial activity),[8]; strain MSSA 15-6,1 µg/mL
same,MIC (anti-bacterial activity),[9]; strain MSSE 15-3,4 µg/mL
same,MIC (anti-bacterial activity),[9]; strain MSSE 15-4,4 µg/mL
same,MIC (anti-bacterial activity),[9]; strain MSSE 15-5,4 µg/mL
same,MIC (anti-bacterial activity),[9]; strain MSSE 15-6,1 µg/mL
same,inhibition at 30 µM,"[10]; Table 5, read-out: Inhibition of proliferation, Colorectal cancer HCT116",≥ 30%
same,inhibition at 30 µM,[10]; read-out: HCT116 inhibition rate/%,36%
same,inhibition at 30 µM,[11],35%
same,inhibition at 30 µM,"[12]; Homo sapiens, Bel-7402, 72 h",> 50%
same,"Inhibition of proliferation, Liver cancer BEL-7402","[12]; 72 hours, 30 µM",63%
same,inhibition at 30 µM,[13],26%
